Legend:
Type in all cases: physicochemical
[1] = Ultraviolet-visible light spectrum (maximum absorbance wavelength)
Description: Method for Obtaining an Ultraviolet-Visible Light Spectrum
Ultraviolet-visible (UV-Vis) Light spectra are obtained and recorded on an Agilent 8453 spectrophotometer using ChemStation software (Agilent Technologies, Inc., Santa Clara, Calif.).
(§1) The compounds were analyzed at 298° K according to the Method for Obtaining Ultraviolet-Visible Light Spectrum (30 μM acetonitrile) to obtain the maximum absorbance wavelength (λabs,max), Method for Obtaining Fluorescence Emission Spectrum (30 μM acetonitrile) to obtain the maximum emission wavelength (λem,max) and Method for Determining Quantum Yield (ΦF) (30 μM acetonitrile) at the concentration, in the solvent, and with the counter ion indicated in Table 1. The compounds included hydrogen at each R group that is not otherwise specified.
(§2) Compounds 6, 7, 9, 11-14 and 21 were analyzed according to: the Method for Obtaining Ultraviolet-Visible Light Spectrum to obtain the maximum absorbance wavelength (λabs,max), the Method for Obtaining Fluorescence Emission Spectrum to obtain the maximum emission wavelength (λem,max), and the Method for Determining Quantum Yield (ΦF) in the solvent and with the counter ion indicated in Table 3.

[2] = Fluorescence emission spectrum (maximum emission wavelength)
Description: Method for Obtaining a Fluorescence Emission Spectrum
Fluorescence emission spectra are obtained and recorded on a QM-4-CW Spectrofluorometer using FeliX32 software (Photon Technology International, Inc., Birmingham, N.J.).
as §1, §2

[3] = Fluorescence quantum yield, integrating sphere; settings: for ΦF (quantum yield): 30 μM acetonitrile, 298 K, Table 1
Description: Method for Determining Quantum Yield
Quantum yield is determined using an integrating sphere attached to a QM-4-CW Spectrofluorometer using FeliX32 software (Photon Technology International).
as §1, §2

[4] = 30 μM acetonitrile, 298 K, Table 1

Structure (SMILES): Cc1ccc(-n2cc3cccc(-c4cn(-c5ccc(N(C)C)cc5)nn4)[n+]3c2)cc1.[Cl-] [Compound 13, 5-(1-(4-(dimethylamino)phenyl)-1H-1,2,3-triazol-4-yl)-2-(p-tolyl)-2H-imidazo[1,5-a]pyridin-4-ium chloride]
- λabs, max Abs ([1]; H2O pH = 2.5, 30 μM): 340 nm
- λabs, max Abs ([1]; H2O pH = 7.5, 30 μM): 340 nm
- λabs, max Abs ([1]; MeCN + 50 μL TFA, 30 μM): 340 nm
- λabs, max Abs ([1]; MeCN, 30 μM): 340 nm
- λem, max Em ([2]; H2O pH = 2.5, 30 μM): 405 nm
- λem, max Em ([2]; MeCN + 50 μL TFA, 30 μM): 410 nm
- […]F (quantum yield) ([3]; H2O pH = 2.5, 30 μM): 59%
- […]F (quantum yield) ([3]; H2O pH = 7.5, 30 μM): 0%
- […]F (quantum yield) ([3]; MeCN + 50 μL TFA, 30 μM): 67%
- […]F (quantum yield) ([3]; MeCN, 30 μM): 0%

Structure (SMILES): CCCCn1c[n+]2ccccc2c1-c1ccc(C)cc1 [Compound 3, 2-butyl-1-(p-tolyl)-2H-imidazo[1,5-a]pyridin-4-ium tertraphenylborate]
- λabs, max Abs [1, 4]: 320 nm
- λem, max Em [2, 4]: 415 nm
- ΦF (quantum yield) [3]: 46%

Structure (SMILES): COc1ccc(-n2cc3cccc(-c4ccc(N(C)C)cc4)[n+]3c2)cc1 [Compound 21, 5-(4-(dimethylamino)phenyl)-2-(4-methoxyphenyl)-2H-imidazo[1,5-a]pyridin-4-ium tetraphenylborate]
- λabs, max Abs ([1]; MeCN, 30 μM): 360 nm
- λem, max Em ([2]; MeCN, 30 μM): 540 nm
- […]F (quantum yield) ([3]; MeCN, 30 μM): 10%

Structure (SMILES): CCCCn1c[n+]2ccccc2c1-c1ccc(OC)cc1.[Cl-] [Compound 4, 2-butyl-1-(4-methoxyphenyl)-2H-imidazo[1,5-a]pyridin-4-ium chloride]
- λabs, max Abs [1, 4]: 320 nm
- λem, max Em [2, 4]: 430 nm
- ΦF (quantum yield) [3]: 64%

Structure (SMILES): CCCCn1c[n+]2ccccc2c1-c1ccc(N(CC)CC)cc1 [Compound 5, 2-butyl-1-(4-(diethylamino)phenyl)-2H-imidazo[1,5-a]pyridin-4-ium tetraphenylborate]
- λabs, max Abs [1, 4]: 355 nm
- λem, max Em [2, 4]: 550 nm
- ΦF (quantum yield) [3]: 38%

Structure (SMILES): CCCCn1cc2cccc(-c3ccc(N(C)C)cc3)[n+]2c1 [Compound 9, 2-butyl-5-(4-(dimethylamino)phenyl)-2H-imidazo[1,5-a]pyridin-4-ium tetraphenylborate]
- λabs, max Abs ([1]; MeCN, 30 μM): 350 nm
- λem, max Em ([2]; MeCN, 30 μM): 490 nm
- […]F (quantum yield) ([3]; MeCN, 30 μM): 75%

Structure (SMILES): CCN(CC)c1ccc(-n2cc(-c3cccc4cn(-c5ccc(C)cc5)c[n+]34)nn2)cc1.[Cl-] [Compound 14, 5-(1-(4-(diethylamino)phenyl)-1H-1,2,3-triazol-4-yl)-2-(p-tolyl)-2H-imidazo[1,5-a]pyridin-4-ium chloride]
- λabs, max Abs ([1]; H2O pH = 2.2, 30 μM): 340 nm
- λabs, max Abs ([1]; H2O pH = 7.5, 30 μM): 340 nm
- λabs, max Abs ([1]; MeCN + excess TFA, 30 μM): 340 nm
- λabs, max Abs ([1]; MeCN, 30 μM): 340 nm
- λem, max Em ([2]; H2O pH = 2.2, 30 μM): 405 nm
- λem, max Em ([2]; MeCN + excess TFA, 30 μM): 410 nm
- […]F (quantum yield) ([3]; H2O pH = 2.2, 30 μM): 53%
- […]F (quantum yield) ([3]; H2O pH = 7.5, 30 μM): 0%
- […]F (quantum yield) ([3]; MeCN + excess TFA, 30 μM): 64%
- […]F (quantum yield) ([3]; MeCN, 30 μM): 0%

Reference: patent US9908877B2, “Imidazo[1,5-a]pyridinium ion fluorophores, and methods of making and using the same” (Indiana University Research and Technology Corporation, priority 2013, dated 2018)
